According to patent US8535736B2, “Methods and compositions for the treatment of infection or infectious colonization of the eyelid, ocular surface, skin or ear” (Advanced Vision Research, Inc, priority 2006, dated 2013):

What was measured:
P. aeruginosa = settings: disc diffusion and broth dilution methods; cited from earlier work
Pseudomonas aeruginosa = assay: Kill-time test (exposure time, survivors, log and percent reduction in CFU); assay type: cell-based; settings: Linalool 0.75% alone, at one minute
Protocol: (§1) The following experiments were performed with a number of topical preparations to test the efficacy of each preparation against both gram negative and gram positive bacteria. The data is presented in tables showing the organism which the preparation was tested against, the exposure time, the number of survivors, the log reduction and the percent reduction in CFUs (Colony Forming Units).
(§2) Experiments were performed with tea tree oil, manuka oil, alpha-terpineol, and linalool in the EyeCI vehicle. The EyeCL vehicle (Advanced Vision Research, Woburn, Mass.) and OcuSoft Lid Scrub Foaming Eyelid Cleanser (CYNACON/OCUSOFT, Rosenberg, Tex.) were tested as controls.

Staphylococcus aureus = assay: as above; assay type: cell-based; settings: at 1 minute
Protocol: as §1, §2

For `CC1=CCC(C(C)(C)O)CC1` (stereo not drawn) [alpha-terpineol], the “activity against P. aeruginosa” value (P. aeruginosa) is given as “inactive”.
In the case of `C=CC(C)(O)CCC=C(C)C` (centres unmarked) [linalool], the “log of Pseudomonas killing” value (Pseudomonas aeruginosa) is reported as “greater than 1 log”, the “log reduction in S. aureus killing” value (Staphylococcus aureus; 0.75% linalool alone) is reported as about 1 log and the “log reduction in S. aureus” value (Staphylococcus aureus; 0.85% linalool) is reported as over 1 log. The “activity against P. aeruginosa” value (P. aeruginosa) was “inactive”.
